Counter-ions that a name gives are not always drawn. Like-named read-outs stand apart in the source and are kept apart here.
Legend:
Type in all cases: in vivo
[1] = test system: Male rats of Wistar strain; experiment: Test 4 Effect on decerebrate rigidity induced by transection between superior and inferior colliculi
Procedure: Male rats of Wistar strain, weighing 300 to 400 g, were used. The test compounds were dissolved in physiological saline and administered intravenously in doses of 10 mg/kg and 20 mg/kg.
Rigidity preparations were made according to the method of Fukuda et al. [The Japanese Journal of Pharmacology, 22, 457 (1972)]. Specifically, after a rat was fixed in a prone position under ether anesthesia, an incision was made in the head. The skull was removed around the occipital region to expose the brain. […] More than 2 hours after operation, the rat was mounted in a supine position on a fixing stand. Thus, the effect of the test compounds was evaluated by using the occurrence of rigidity in the antigravity muscles of the limbs as an index.

[2] = Test 5 Acute toxicity (LD50, method of Behrens and Kärbar); settings: mouse, in vivo, mice, observed for 7 days
Procedure: (§1) Male mice of ddY strain, weighing 25 to 30 g, were used in groups of five. The test compounds were dissolved in distilled water and administered orally in various doses. […] Then, the LDso was calculated according to the method of Behrens and Kärbar.

[3] = test system: Male mice of ddY strain; experiment: Test 1 Anti-nicotine activity (inhibition of nicotine-induced convulsive death); settings: 200 mg/kg po, nicotine 2 mg/kg iv after 1 h, observed 1 h; for responders at 200 mg/kg: Mus musculus
Procedure: Male mice of ddY strain, weighing 28 to 33 g, were used in groups of eight or twelve. The test compounds were dissolved in distilled water and administered orally in a dose of 200 mg/kg. After an hour, nicotine was intravenously administered in a dose of 2 mg/kg.

[4] = test system: Male mice of ddY strain; experiment: Test 2 Anti-tremorine activity (inhibition of tremorine-induced tremor); settings: for responders at 50 mg/kg: Mus musculus, po, read-out: Inhibition of tremor (%)
Procedure: Male mice of ddY strain, weighing 28 to 32 g, were used in groups of eight or ten. The test compounds were dissolved in distilled water and administered orally in a dose of 50 mg/kg. After 30 minutes, tremorine dihydrochloride was subcutaneously administered in a dose of 20 mg/kg. Then, the occurrence of tremor was observed after the lapse of 30 and 60 minutes.

[5] = test system: Male mice of ddY strain; experiment: Test 3 Muscle relaxant activity (traction test, method of Courvoisier et al.); settings: 15 minutes after administration, groups of ten
Procedure: Male mice of ddY strain, weighing 30 to 37 g, were used in groups of ten. The test compounds were dissolved in physiological saline and administered intraperitoneally in a dose of 50 or 75 mg/kg. […] This method involves a traction test in which the animal is hung by its forelimbs on a horizontal metal rod (2 mm in diameter) placed 20 cm above the floor and examined as to whether it can put its hindlimb on the rod or not.
Specifically, 15 minutes after administration of a test compound, the mouse was hung on the rod by its forelimbs. […] It had been confirmed in preliminary tests that, under normal conditions, all the mice could put their hindlimb on the rod within 5 seconds.

[6] = test system: Male mice of ddY strain; experiment: Test 5 Acute toxicity (LD50, method of Behrens and Kärbar); settings: Table-5a, observed for 7 days
Procedure: as §1

[7] = Table-3d, 50 mg/kg po, After 30 min., 10 animals used
[8] = Table-3d, 50 mg/kg po, After 60 min., 10 animals used
[9] = 0.5 h, Table-3d, 50 mg/kg po, After 30 min., 10 animals used
[10] = 1 h, Table-3d, 50 mg/kg po, After 60 min., 10 animals used
[11] = po, 1 h, Table-2c, 12 animals used
[12] = Table-3a, 50 mg/kg po, After 30 min. from tremorine 20 mg/kg sc, 8 animals used
[13] = Table-3a, 50 mg/kg po, After 60 min. from tremorine 20 mg/kg sc, 8 animals used

CCCC(CN1CCCCC1)C(=O)c1ccc2c(c1)OCO2 (stereo not shown) [Example 66, 1-(3,4-Methylenedioxyphenyl)-2-n-propyl-3-piperi-dino-1-propanone hydrochloride]
rigidity of the forelimbs and hindlimbs ([1]; 20 mg/kg intravenously): relaxed the rigidity similarly
LD50 at 168 h ([2]; Table-5b, oral): 625 mg/kg
responders at 200 mg/kg ([3]; Table-2b, 12 animals used): 58.3%
Number of surviving animals ([3]; Table-2b, 12 animals used): 7

CC(CN1CCCC1)C(=O)c1ccc2c(c1)CCO2.Cl (stereo not shown) [Example 92, 1-(2,3-Dihydro-5-benzofuranyl)-2-methyl-3-(1-pyrrolidinyl)-1-propanone hydrochloride]
responders at 50 mg/kg ([4]; 0.5 h): 100%
responders at 50 mg/kg ([4]; 1 h): 100%
Number of animals exhibiting no tremor [4, 7]: 10
Number of animals exhibiting no tremor [4, 8]: 10
rigidity of the forelimbs and hindlimbs ([1]; 20 mg/kg intravenously): relaxed the rigidity similarly
LD50 at 168 h ([2]; Table-5c, oral): 685 mg/kg
responders at 200 mg/kg ([3]; Table-2c, 12 animals used): 75%
Number of surviving animals ([3]; Table-2c, 12 animals used): 9
Number of animals exhibiting muscle relaxation ([5]; Table-4d, 75 mg/kg ip): 6

CC(CN1CCCCC1)C(=O)c1ccc2c(c1)CCO2.Cl (stereo not shown) [Example 85, 1-(2,3-Dihydro-5-benzofuranyl)-2-methyl-3-piperidino-1-propanone hydrochloride]
responders at 50 mg/kg [4, 9]: 100%
responders at 50 mg/kg [4, 10]: 100%
Number of animals exhibiting no tremor [4, 7]: 10
Number of animals exhibiting no tremor [4, 8]: 10
rigidity of the forelimbs and hindlimbs ([1]; 20 mg/kg intravenously): relaxed the rigidity similarly
LD50 at 168 h ([2]; po, Table-5c): 625 mg/kg
responders at 200 mg/kg [3, 11]: 66.7%
Number of surviving animals ([3]; Table-2c, 12 animals used): 8
Number of animals exhibiting muscle relaxation ([5]; Table-4d, 75 mg/kg ip): 8

CCC(CN1CCCCC1)C(=O)c1ccc2c(c1)OCO2.Cl (stereo not shown) [Example 53, 2-Ethyl-1-(3,4-methylenedioxyphenyl)-3-piperidino-1-propanone hydrochloride]
rigidity of the forelimbs and hindlimbs ([1]; 20 mg/kg intravenously): relaxed the rigidity similarly
LD50 at 168 h ([2]; po, Table-5b): 565 mg/kg
responders at 200 mg/kg ([3]; po, 1 h, Table-2b, 12 animals used): 83.3%
Number of surviving animals ([3]; Table-2b, 12 animals used): 10

CC(CN1CCCCCC1)C(=O)c1ccc2c(c1)CCO2.Cl (stereo not shown) [Example 93, 1-(2,3-Dihydro-5-benzofuranyl)-2-methyl-3-(hexahydro-1H-azepin-1-yl)-1-propanone hydrochloride]
responders at 50 mg/kg [4, 9]: 100%
responders at 50 mg/kg [4, 10]: 100%
Number of animals exhibiting no tremor [4, 7]: 10
Number of animals exhibiting no tremor [4, 8]: 10
rigidity of the forelimbs and hindlimbs ([1]; 20 mg/kg intravenously): relaxed the rigidity similarly
LD50 at 168 h ([2]; po, Table-5c): 685 mg/kg
responders at 200 mg/kg [3, 11]: 58.3%
Number of surviving animals ([3]; Table-2c, 12 animals used): 7
Number of animals exhibiting muscle relaxation ([5]; Table-4d, 75 mg/kg ip): 6

CC(CN1CCCCC1)C(=O)c1ccc2c(c1)OCO2.Cl (stereo not shown) [Example 57, 2-Methyl-1-(3,4-methylenedioxyphenyl)-3-piperidino-1-propanone hydrochloride]
rigidity of the forelimbs and hindlimbs ([1]; 20 mg/kg intravenously): relaxed the rigidity similarly
LD50 at 168 h ([2]; Table-5b, oral): 625 mg/kg
responders at 200 mg/kg ([3]; Table-2b, 12 animals used): 41.7%
Number of surviving animals ([3]; Table-2b, 12 animals used): 5

1-(4-Cyclopropylphenyl)-2-methyl-3-piperidino-1-propanone hydrochloride [Example 1]
Inhibition of tremor (%) [4, 12]: 100%
Number of animals exhibiting no tremor [4, 12]: 8
Inhibition of tremor (%) [4, 13]: 87.5%
Number of animals exhibiting no tremor [4, 13]: 7
rigidity of the forelimbs and hindlimbs ([1]; 10 mg/kg intravenously): relaxed the rigidity of the forelimbs and hindlimbs to a significant degree
Acute toxicity LD50 (mg/kg,po) [6]: 535 mg/kg
Inhibition of death (%) ([3]; Table-2a, 8 animals used): 100.0%
Number of surviving animals ([3]; Table-2a, 8 animals used): 8
Muscle relaxation rate (%) ([5]; Table-4a, 50 mg/kg ip): 60%
Number of animals exhibiting muscle relaxation ([5]; Table-4a, 50 mg/kg ip): 6

Source: patent EP0163537A1, “1-Propanone derivatives and pharmaceutical compositions containing same” (priority 1984, dated 1985)
